Experimental data published in ChEMBL document CHEMBL5584254, “Identification of N-(((1S,3R,5S)-adamantan-1-yl)methyl)-3-((4-chlorophenyl)sulfonyl)benzenesulfonamide as novel Nav1.8 inhibitor with analgesic profile” (Bioorg Med Chem Lett, 2024).
Calls of active or inactive are those of the source.

What was measured:
HEK293 = experiment: Binding affinity to Nav1.8 (unknown origin) expressed in HEK293 cells assessed as retention time by cell membrane chromatography analysis; assay type: cell membranes; conditions: Homo sapiens
Mus musculus [1] = experiment: Analgesic activity in CFA-induced inflammatory pain mouse model assessed as increase in mechanical pain threshold at 10 mM, ip measured upto 5 hrs by von frey test; assay type: functional, organism-based
Homo sapiens = species: Homo sapiens; experiment: Inhibition of Nav1.8 (unknown origin) at 10 uM under resting state by whole-cell patch clamp analysis relative to control
Mus musculus [2] = experiment: Analgesic activity in CFA-induced inflammatory pain mouse model assessed as increase in mechanical pain threshold at 10 mM, ip measured within 5 hrs by von frey test; assay type: functional, organism-based
Mus musculus [3] = experiment: Analgesic activity in CFA-induced inflammatory pain mouse model assessed as inhibition of mechanical hyperalgesia by measuring delta AUC at 10 mM, ip by von frey test; assay type: functional, organism-based
Mus musculus [4] = experiment: Analgesic activity in CFA-induced inflammatory pain mouse model assessed as effect on intensity of pain relief by measuring delta AUC at 10 mM, ip by von frey test; assay type: functional, organism-based
Mus musculus [5] = experiment: Analgesic activity in CFA-induced inflammatory pain mouse model assessed as effect on duration of pain relief by measuring delta AUC at 10 mM, ip by von frey test; assay type: functional, organism-based
Nav1.8 (SCN10A) = experiment: Inhibition of Nav1.8 (unknown origin) at 10 uM under half […] state by whole-cell patch clamp analysis relative to control; conditions: human

Compound: Cc1cc2oc(=O)cc(C)c2c(O)c1C1=NNC(c2ccc3c(c2)OCO3)C1 (stereo not given)
- Retention time (HEK293): 0.4 min

Compound: Cc1ccc(CS(=O)(=O)c2cn(CC(=O)Nc3ccc(F)cc3F)c3ccccc23)cc1
- Retention time (HEK293): 14.7 min
- Activity (Mus musculus [1]): Active

Compound: O=C(Cc1cccc2ccccc12)NN1C(=O)C2C3C=CC(C3)C2C1=O (stereo not given)
- Retention time (HEK293): 1.9 min

Compound: COc1cc(NC(=O)c2ccc(-c3ccc(Cl)cc3)o2)cc(OC)c1
- Retention time (HEK293): 120 min
- inhibition (Homo sapiens): 62.1%

Compound: O=[N+]([O-])c1cccc(C2Oc3ccccc3C3CC(c4ccc(F)cc4)=NN32)c1 (stereo not given)
- Retention time (HEK293): 0.4 min

Compound: CC1Oc2ccccc2CC1/C=C1/Oc2cc(OC(=O)c3ccc4c(c3)OCO4)ccc2C1=O (stereo not given)
- Retention time (HEK293): 0.4 min

Compound: O=C(Cc1ccccc1)N/N=C/c1c2ccccc2cc2ccccc12
- Retention time (HEK293): 0.4 min

Compound: Cc1ccccc1C1CC(=O)C2=C(C1)NC(=O)C(CC(=O)Nc1cccc(Cl)c1C)C2 (stereo not given)
- Retention time (HEK293): 5.76 min
- inhibition (Homo sapiens): 6.49%
- Activity (Mus musculus [2]): Active
- Activity (Mus musculus [3]): Active
- Activity (Mus musculus [4]): Active
- Activity (Mus musculus [1]): Active
- Activity (Mus musculus [5]): Active
- inhibition at 10 µM (Nav1.8 (SCN10A)): 11.1%

Compound: Cc1cc(F)ccc1Oc1cc(C(F)(F)F)ccc1C(=O)Nc1cc[nH]c(=O)c1
- Retention time (HEK293): 8.56 min
- Activity (Mus musculus [2]): inactive
- Activity (Mus musculus [1]): Active

Compound: COc1ccc(/C=N/NC(=O)NC23CC4CC(C2)CC(c2ccc(C)cc2)(C4)C3)cc1
- Retention time (HEK293): 0.4 min

Compound: CN1c2ccc(F)cc2C(C)(C)C12C=Cc1cc([N+](=O)[O-])ccc1S2 (stereo not given)
- Retention time (HEK293): 0.4 min

Compound: COc1cccc(C2C3=C(CC4=C2C(=O)CC(C)(C)C4)CC(C)(C)CC3=O)c1OCC(=O)O
- Retention time (HEK293): 1.2 min

Compound: O=S(=O)(NCC12CC3CC(CC(C3)C1)C2)c1ccc(Cl)c2ccccc12
- Retention time (HEK293): 0.4 min

Compound: Cc1ccc(C)c(Cn2cccc2CNC(=O)NC23CC4CC(CC(C4)C2)C3)c1
- Retention time (HEK293): 0.4 min

Compound: CCC1(C)Oc2ccc(NS(=O)(=O)c3ccc4c(c3)Cc3ccccc3-4)cc2O1 (stereo not given)
- Retention time (HEK293): 0.4 min

Compound: O=S(=O)(NCC12CC3CC(CC(C3)C1)C2)c1cccc(S(=O)(=O)c2ccc(Cl)cc2)c1
- Retention time (HEK293): 56 min
- inhibition (Homo sapiens): 14.3%
- Activity (Mus musculus [2]): Active
- Activity (Mus musculus [3]): Active
- Activity (Mus musculus [4]): Active
- Activity (Mus musculus [1]): Active
- Activity (Mus musculus [5]): Active
- inhibition at 10 µM (Nav1.8 (SCN10A)): 63.8%

Compound: Cc1cc(OCC(=O)Nc2ccc(C(C)(C)C)cc2)c2c3c(c(=O)oc2c1)CCC3
- Retention time (HEK293): 0.4 min
